Laboratory results from patent US10226462B2, “Detection and treatment of excessive hair shedding” (Samson Clinical Pty Ltd, priority 2014, dated 2019).

Columns and labels:
[1] = tested on: telogen effluvium; conditions: treatments commonly used for AGA; cited from earlier work
[2] = tested on: bitemporal hair loss in female pattern hair loss; assay: Oral minoxidil 0.25 mg daily in women with bitemporal recession in female pattern hair loss; format: in vivo, human; conditions: for Hair shedding (HSS stage): baseline stage 6
[3] = tested on: chronic telogen effluvium; assay: Once daily oral minoxidil in women with chronic telogen effluvium (CTE), hair shedding score and safety; conditions: for Mean HSS: 36 women, oral 0.5-2.5 mg daily, baseline 5.63; for Reduction in mean HSS: p<0.001
Procedure: The goals of this study were to review the use of oral minoxidil in CTE with respect to the response to hair shedding and safety. Hair shedding was assessed by patient self-reported Hair shedding Scores (HSS) using the visual analogue scale as described in Example 1 and FIG. 1. Hair Shedding Scores (HSS) were on the scale of 1 to 6 (6 being the highest level of hair shedding). Patients included in this study were women with a diagnosis of CTE based on >6 month history of increased telogen hair shedding, a HSS of 4-6, no visible mid frontal scalp hair loss (Sinclair stage 1) and no hair follicle miniaturization on scalp biopsy.
Data pertaining to dosage of oral minoxidil, previous treatments including topical minoxidil use, blood pressure, side effects, hypertrichosis and trichodynia were collected for each patient. Patient-reported responses were based on a visual analogue scale HSS at each consultation. The HSS prior to starting oral minoxidil, and scores at 6 and 12 months were extracted for analysis. Patients were treated with a once daily oral minoxidil (0.5 to 2.5 mg).
Data were analysed using Matlab R2014b statistical software. Hair shedding scores at baseline, 6 and 12 months were analysed using the Wilcoxon rank sum test for pair-wise comparisons. Differences in blood pressure at baseline and 6 months were also analysed using Wilcoxon rank sum test. Relationship between outcomes (HSS at six and 12 months) and individual patient specific variables including previous use of […], duration of disease, dosage and HSS at baseline were analysed using a generalised linear regression model.

[4] = tested on: androgenetic alopecia (male pattern hair loss); assay: Pilot open study of oral minoxidil 0.25 mg once daily for 24 weeks in men with AGA; format: in vivo, human; conditions: 0.25 mg daily
Procedure: This study was a pilot, prospective, open, observational study conducted at the Sinclair Dermatology Clinic in Melbourne, Australia. Participants were dosed for 24 weeks. Treatment naïve men with Hamilton Norwood staged III vertex, IV or V were treated for 24 weeks with minoxidil 0.25 mg once daily. The primary efficacy endpoint was investigators' photographic assessment at week 24 and adverse events. Investigator photographic assessment was conducted by a single investigator grading the photographs using a 3 point rating scale, ranging from “decreased hair growth” to “increased hair growth,” centred at no change. Any reports of adverse events were collected at every visit.

[5] = tested on: Monilethrix; assay: Oral minoxidil in two cases of monilethrix
Procedure: Patient 6: A person presented with lifelong fragile, sparse, and thin hair. […] Comorbidities included Crohn's disease and impaired hearing. Their child and two sons had also been diagnosed with monilethrix and suffered from sparse and fragile hair. […] As the application of topical minoxidil could potentially accentuate breakage of fragile hairs, treatment was commenced with oral minoxidil 0.25 mg daily.
Patient 7: A person with fragile, thin and sparse hair since childhood secondary to monilethrix presented for assessment and treatment. […] As the application of topical minoxidil could potentially accentuate breakage of fragile hairs oral Minoxidil 0.25 mg daily was commenced.

CC(=O)O[C@]1(C(C)=O)CC[C@H]2[C@@H]3C=C(Cl)C4=CC(=O)[C@@H]5C[C@@H]5[C@]4(C)[C@H]3CC[C@@]21C [cyproterone acetate]
Efficacy in TE [1]: do not work

CC(C)(C)NC(=O)[C@H]1CC[C@H]2[C@@H]3CC[C@H]4NC(=O)C=C[C@]4(C)[C@H]3CC[C@]12C [finasteride]
Efficacy in TE [1]: do not work

Nc1cc(N2CCCCC2)nc(N)[n+]1[O-] [minoxidil]
Side-effects ([2]; Patient 8): no side-effects
Hair shedding (HSS stage) ([2]; Patient 8, 0.25 mg, review at 3 months): 5
Blood pressure ([2]; Patient 8, review at 3 months, baseline 110/70): 115/65
Facial hypertrichosis ([2]; Patient 8, review at 3 months, present at baseline): unaltered
Side effects or complications of treatment ([2]; Patient 9): not experienced any side effects or complications
Hair shedding (HSS stage) ([2]; Patient 9, 0.25 mg once daily with continued spironolactone 100 mg daily, review at 6 weeks): 4
Blood pressure ([2]; Patient 9, review at 6 weeks, baseline 140/85): 125/85
Patients in whom the HSS improved ([3]; after 6 months, of 36): 31
Patients in whom the HSS remained the same ([3]; after 6 months, of 36): 4
Mean HSS ([3]; at 6 months): 3.9
Mean HSS ([3]; at 12 months): 3.05
Patients in whom the HSS increased ([3]; at the 6-month mark, of 36): 1
Patients improved from baseline ([3]; at the 12 month mark, of 36): 33
Reduction in mean HSS ([3]; baseline to 6 months): 1.7
Reduction in mean HSS ([3]; baseline to 12 months): 2.58
Mean reduction in HSS ([3]; between 6 months and 12 months, p=0.003): 0.89
Lowest blood pressure recorded ([3]; in vivo): 90/70
Mean change in blood pressure, diastolic ([3]; in vivo): plus 2.1 mmHg
Mean change in blood pressure, systolic ([3]; in vivo): minus 0.5 mmHg
Mean dose in patient group with hypertrichosis (Yes) ([3]; in vivo): 1.46 mg
Mean dose in patient group with trichodynia (Yes) ([3]; in vivo): 1.19 mg
Mean dose in patient group without hypertrichosis (No) ([3]; in vivo): 0.99 mg
Mean dose in patient group without trichodynia (No) ([3]; in vivo): 1.11 mg
Patients who developed ankle oedema ([3]; of 36): One
Patients who developed any blood test abnormalities ([3]; of 36): No patients
Women who developed facial hypertrichosis ([3]; of 36): Thirteen
Patients who developed transient postural dizziness ([3]; of 36, resolved with continued treatment): Two
Difference between blood pressure at baseline and 6 months ([3]; p>0.05): no significant differences
Mean reduction in HSS ([3]; patients who had not used topical minoxidil, at 12 months): 2.32
Mean reduction in HSS ([3]; patients who had not used topical minoxidil, at six months): 1.56
Mean reduction in HSS ([3]; patients who had previously used topical minoxidil, at 12 months): 3.18
Mean reduction in HSS ([3]; patients who had previously used topical minoxidil, at six months): 2
Tolerability ([4]; patients with MPHL): well tolerated
Adverse events ([4]; six men, 24 weeks): No adverse events
Side effects ([5]; Patient 6, oral 0.25 mg daily): did not experience any side effects or complication
Tolerability ([5]; low doses, oral): well tolerated

CC(=O)S[C@@H]1CC2=CC(=O)CC[C@]2(C)[C@H]2CC[C@@]3(C)[C@@H](CC[C@@]34CCC(=O)O4)[C@H]12 [spironolactone]
Efficacy in TE [1]: do not work
